Test results reported in US20210317099A1, “SAFER, POTENT, AND FAST ACTING ANTIMICROBIAL AGENTS” (Purdue Research Foundation, priority 2020, published 2021).
≈ marks a conversion by molar mass, not a printed value. Like-named read-outs stand apart in the source and are kept apart here.

Columns and labels:
[1] = test system: total proteases production in MRSA USA300; test: Inhibition of staphylococcal total proteases production, skimmed milk method; type: cell-based, Staphylococcus aureus; settings: MRSA USA300, 0.25×MIC, untreated = 100%
Procedure: The modified skimmed milk method was utilized to investigate the protease inhibitory activities of BHS compounds as described previously. In brief, overnight culture of MRSA300 in TSB, with and without subinhibitory concentrations of compounds (in triplicate), was centrifuged at 14000×g for 10 minutes. Then, a total volume of 500 μL of culture supernatant was incubated with 1 mL skimmed milk (1.25%) at 37° C. for 1 hour. Afterwards, the OD600 was measured to indicate the degree of clearance of skimmed milk. Higher OD values indicate lower proteolytic activity and greater protease inhibitory activity.
FIG. 4. Influence of BHS compounds on the staphylococcal total protease production. OD600 was measured following overnight culturing of MRSA USA300 in TSB in presence and absence of 0.25×MIC of 148, 149, 155, 158 and vancomycin followed by incubation of supernatants with skim milk for 1 hour at 37° C. The Data are presented as percent production (means±standard deviation). DMSO (the solvent for the compounds that served as a negative control). Vancomycin served as the control antibiotic. The values represent an average (means±standard deviation) of four samples analyzed for each compound/antibiotic. Error bars represent standard deviation values. An asterisk (*) denotes statistical significance (P<0.05) between results for compounds 148, 149, 155, 158 and vancomycin analyzed via unpaired t test ([…]).

[2] = test system: Staphylococcus aureus NRS384 (MRSA USA300); test: Initial MIC screening, broth microdilution (CLSI); type: cell-based; settings: for potency compared with control antibiotic: MRSA USA300, Table 1 assay; for MIC: Staphylococcus aureus NRS384 (MRSA USA300), broth microdilution, visual reading
Procedure, shortened: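 MRSA USA300 grown 24 h at 37 °C on tryptic soy agar, then adjusted to 5×10^5 CFU/ml in cation-adjusted Mueller-Hinton broth. Compounds serially diluted 64 to 0.5 μg/mL per CLSI broth microdilution; MIC recorded.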

[3] = test system: human colorectal adenocarcinoma (Caco-2) cell; test: In vitro cytotoxicity, MTS assay; type: cell-based
Procedure: Compounds 144, 148, 151, 155, 158, and 187 were assayed (at concentrations of 16, 32, and 64 μg/mL) against a human colorectal adenocarcinoma (Caco-2) cell to determine the potential toxic effect to mammalian cells in vitro. Briefly, cells were cultured in Dulbecco's Modified Eagle Medium (DMEM) supplemented with 10% fetal bovine serum (FBS), non-essential amino acids (1×), penicillin-streptomycin at 37° C. in presence of 5% CO2. Control cells received DMSO alone at a concentration equal to that in drug-treated wells. The cells were incubated with the compounds (in triplicate) in a 96-well plate at 37° C. with 5% CO2 for two hours. This was followed by the subsequent addition of the assay reagent MTS 3-(4,5-dimethylthiazol-2-yl)-5-(3-carboxymethoxyphenyl)-2-(4-sulfophenyl)-2H-tetrazolium) (Promega, Madison, Wis., USA) and the plate was incubated for three to four hours. Absorbance readings (at OD490) were recorded using a kinetic microplate reader (Molecular Devices, Sunnyvale, Calif., USA). The quantity of viable cells after treatment with each compound was expressed as a percentage of the viability of DMSO-treated control cells (average of triplicate wells±standard deviation).
FIG. 3. Analyzing the toxicity of 144, 148, 151, 155, 158, and 187 compounds (tested in triplicates at 16, 32 and 64 μg/mL) against human colorectal cells (Caco-2) using the MTS 3-(4,5-dimethylthiazol-2-yl)-5-(3-carboxymethoxyphenyl)-2-(4-sulfophenyl)-2H-tetrazolium) assay. Results are presented as percent viable cells relative to DMSO (negative control) to determine a baseline measurement for the cytotoxic impact of each compound. The absorbance values represent an average of three samples analyzed for each compound. Error bars represent standard deviation values. The data were analyzed via a two-way ANOVA with post-hoc Dunnett's test for multiple comparisons. An asterisk (*) denotes statistical significance (P<0.05) between results for compounds and DMSO.

[4] = test system: human keratinocytes cell line (HaCaT cells); test: In vitro cytotoxicity, MTS assay; type: cell-based; settings: 2 h
Procedure: Compounds 144, 148, 149, 151, 155, and 158 were assayed (at concentrations of 16, 32, and 64 μg/mL) against a human keratinocytes cell line (HaCaT cells) to determine their in vitro potential toxic effect. Briefly, cells were cultured in Dulbecco's Modified Eagle Medium (DMEM) supplemented with 10% fetal bovine serum (FBS) and penicillin-streptomycin at 37° C. in presence of 5% CO2. Compounds were added in the first row of the 96-well plate. Control cells received DMSO alone at a concentration equivalent to that in drug-treated wells. The cells were incubated with the compounds (in triplicate) in a 96-well plate at 37° C. in presence of 5% CO2 for two hours. The assay reagent MTS 3-(4,5-dimethylthiazol-2-yl)-5-(3-carboxymethoxyphenyl)-2-(4-sulfophenyl)-2H-tetrazolium) (Promega, Madison, Wis., USA) was subsequently added and the plate was incubated for three to four hours. Absorbance readings (at OD490) were recorded using a kinetic microplate reader (Molecular Devices, Sunnyvale, Calif., USA). The quantity of viable cells after treatment with each compound was expressed as a percentage of the viability to DMSO-treated control cells (average of triplicate wells±standard deviation).
FIG. 2. Analyzing the toxicity of compounds 144, 148, 149, 151, 155 and 158 (tested in triplicates at 16, 32 and 64 μg/mL) against human keratinocytes cells (HaCaT) using the MTS 3-(4,5-dimethylthiazol-2-yl)-5-(3-carboxymethoxyphenyl)-2-(4-sulfophenyl)-2H-tetrazolium) assay. Results are presented as percent viable cells relative to DMSO (negative control to determine a baseline measurement for the cytotoxic impact of each compound). The absorbance values represent an average of three samples analyzed for each compound. Error bars represent standard deviation values. The data were analyzed via a two-way ANOVA with post-hoc Dunnett's test for multiple comparisons. An asterisk (*) denotes statistical significance (P<0.05) between results for compounds and DMSO.

[5] = Staphylococcus aureus, read-out: MIC

| SMILES | total protease production [1] [%] | potency compared with control antibiotic [2] | MIC [2] [µg/mL] | MIC [2, 5] [µg/mL] | viable cells ([3]; Caco-2, at 32 μg/mL, relative to DMSO) [%] | non-toxic concentration to Caco-2 cells ([3]; Caco-2, two hours incubation, MTS) [µg/mL] | tolerable concentration as multiple of MIC against MRSA [4] [times] |
| --- | --- | --- | --- | --- | --- | --- | --- |
| C=C(C(=O)OC)C(c1ccc2ccccc2c1)C(O)c1cccc2ccccc12 (stereo not drawn) [Compound 148] | 87 | potency comparable to vancomycin | 2 (≈ 5.23 µM) | 1 to 2 (≈ 2.61 to 5.23 µM) |  |  |  |
| C=C1C(=O)O[C@H](c2cccc3ccccc23)[C@@H]1c1ccc2ccccc2c1 [Compound 155] | 65 | potency comparable to vancomycin | 2 (≈ 5.71 µM) | 1 to 2 (≈ 2.85 to 5.71 µM) | 100 | ≤ 32 |  |
| C=C1C(=O)O[C@H](c2ccc3ccccc3c2)[C@@H]1c1ccc2ccccc2c1 [Compound 158] | 56 | potency comparable to vancomycin | 2 (≈ 5.71 µM) | 1 to 2 (≈ 2.85 to 5.71 µM) |  |  |  |
| C=C1C(=O)O[C@H](c2ccccc2)[C@@H]1c1cccc2ccccc12 [Compound 151] |  | potency similar to the oxazolidinone class of antimicrobial drug linezolid | 1 (≈ 3.33 µM) | 1 to 2 (≈ 3.33 to 6.66 µM) |  |  | 16 to 32 |
